# Reference: patent US20120070442A1, “METHODS AND COMPOSITIONS FOR TREATING CANCER” (The Regents of the University of Colorado, a body corporate, priority 2007, published 2012)
# Tested on: NSCLC
# Assay: Clinical response and survival of NSCLC patients treated with gefitinib
# Format: in vivo, human
# Excerpt: After appropriate approval from the institution and written informed consent for comprehensive use of molecular and pathologic analysis was received from each patient, NSCLC specimens were formalin-fixed, paraffin-embedded at Tokyo Medical University, Tokyo, Japan. Information on gender, age, histology, cigarette use, response, and survival was obtained for each patient. Tumor specimens were microdissected under stereoscopic microscopy (LEICA MZ12, Leica Microsystems, Wetzlar, Germany). DNA was extracted from tumor cells with the DNeasy Tissue Kit (Qiagen, Valencia, Calif.).
# For all tests, a level of P<0.05 was considered statistically significant. Fisher's exact test for count data was used to analyze proportions among the factors studied. […] In this case, response or stable disease was considered a positive outcome while progressive disease was considered negative. The Kaplan-Meier method was used to estimate the probability of survival as a function of time. […] Significant differences between survival curves were analyzed using the log-rank test. Multivariate analysis of the relative importance of the factors to survival was performed using the Cox proportional-hazards method.
# Each sample was analyzed in triplicate on a quantitation run. The ratio of miR-128b to CFTR DNA copies was determined. […]
structure (smiles),measurement,setting,value
"COc1cc2ncnc(Nc3ccc(F)c(Cl)c3)c2cc1OCCCN1CCOCC1 [Gefitinib, N-(3-chloro-4-fluoro-phenyl)-7-methoxy-6-(3-morpholin-4-ylpropoxy)quinazolin-4-amine]",survival after initiation of gefitinib therapy,NSCLC patients with deletion of miR-128b by DNA copy,23.3 months
same,survival after initiation of gefitinib therapy,NSCLC patients without deletion of miR-128b by DNA copy,10.7 months
